Holding throughout (test): DTP human tumour cell line panel, 48 h
The test system of test [1] is ACHN renal.
Test [2] concerns OVCAR-8 ovarian.
The test system of test [3] is SK-OV-3 ovarian.
Test [4] concerns HOP-62 NSCLC.
The subject of test [5] is SNB-19 CNS.
The subject of test [6] is SK-MEL-2 melanoma.
Test [7] relates to UO-31 renal.
For test [8], the system named is UACC-62 melanoma.
Test [9] relates to SF-268 CNS.
For test [10], the system named is RPMI-8226 leukemia.

The structures appear in SMILES notation.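 Cells were grown in 96-well plates and exposed to each compound for 48 hours at five concentrations; endpoints were interpolated linearly between bracketing concentrations, or set to the highest concentration if not reached. Abbreviation: GI50, concentration required for 50% inhibition of growth. TGI denotes the concentration required for complete inhibition of growth.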

Our source for the GI50 and TGI values is PubChem BioAssay (NCI).

`O=Cc1ccc(-c2ccc(-c3nc4ccccc4o3)cc2)o1`: the GI50 (commonly the concentration that inhibits growth by half) in test [1] is 21.1 µM; in test [2], 33.3 µM; in test [3], 41.9 µM; in test [4], 49.2 µM; in test [5] it was over 100 µM; in test [6], 66.4 µM. For the same compound, the GI50 in test [7] was 22.7 µM; in test [8], 21.7 µM; in [9], 29.6 µM. Besides, the TGI (in general, the concentration giving total growth inhibition) is 58.2 µM in test [1]; over 100 µM in test [2]; over 100 µM in test [3]; over 100 µM in [4]; over 100 µM in test [5]; over 100 µM in [6]. For the same compound, the TGI in test [7] was 68.5 µM; in [8] it was 63.3 µM; in [9], over 100 µM.

As for `CCOc1cccc2ccc[n+](CC)c12`, the concentration for total growth inhibition (TGI) in test [1], in [2], in test [10], in [3], in [4] and in test [5] was over 100 µM in each case. In addition, the total growth inhibition concentration (TGI) in test [7] was over 100 µM; in test [8], over 100 µM; in [9], 77.9 µM.

`O=C(OCc1ncc(-c2ccc(C(F)(F)F)cc2)c(NC2CCCCCC2)n1)c1c(F)c(F)c(F)c(F)c1F`: the GI50 in [1] was 14.2 µM; in test [2] it was 12.2 µM; in test [10], 3.07 µM; in test [3] it was 21.6 µM; in test [4] it was 18.8 µM; in test [5], 14.1 µM. Also, the results for the GI50 in test [7], in test [8] and in test [9] were 8.12 µM, 14.2 µM and 12.9 µM, respectively. Further, the concentration for total growth inhibition (TGI) in [1] amounted to 29.2 µM; in test [2], 34 µM; in [10], 9.95 µM; in test [3] it was 39.1 µM; in test [4], 34.3 µM; in [5], 27.7 µM. The values for the TGI in test [7], in test [8] and in [9] were 21.3 µM, 29.2 µM and 28 µM, respectively.

Turning to `C=C(Nc1ccc([N+](=O)[O-])cc1[N+](=O)[O-])c1c/c(=N\NC(N)=S)c2ccccc2o1`, the total growth inhibition concentration (TGI) in test [1], in [2], in [3], in test [4], in [5] and in test [6] was over 100 µM throughout. Further, the TGI in [7], in test [8] and in test [9] was over 100 µM throughout.

As for `CCC(CNc1cc(OC)cc2cccnc12)NC1CCCCC1` (stereo not given), the GI50 in test [1] is 49.7 µM; in [2] it was 51.1 µM; in [3], over 100 µM; in test [4] it was 66 µM; in [5], 89.7 µM; in test [7], 4.47 µM. Also, the GI50 in [8] is 40.1 µM; in test [9], 33.2 µM. Besides, the concentration for total growth inhibition (TGI) in [1], in test [2], in test [3], in test [4], in test [5] and in test [7] was over 100 µM throughout. The concentration for total growth inhibition (TGI) in [8] and in [9] was over 100 µM each time.

As to `CCOC(=N)CC(=O)c1ccccc1`, the TGI in test [1], in test [2], in test [3], in test [4], in test [5] and in test [6] was over 100 µM throughout. Besides, the TGI in test [7], in test [8] and in test [9] was over 100 µM each time.

Consider `COc1ccc(/C=N\Nc2ccc([N+](=O)[O-])cn2)cc1OC`, for which the GI50 in [2] was over 100 µM; in test [3] it was 3.48 µM; in [4], 10.5 µM; in test [5], 27 µM; in [6], over 100 µM; in [7] it was 3.14 µM. For the same compound, the GI50 in test [8] and in test [9] was over 100 µM each time. The TGI in test [2] was over 100 µM; in [3], 24.3 µM; in test [4], over 100 µM; in test [5] it was over 100 µM; in test [6], over 100 µM; in test [7], over 100 µM. The concentration for total growth inhibition (TGI) in test [8] and in test [9] was over 100 µM in each case.

On to `CCN(CC)CCCC(C)N=C(C1=C(C(=NC(C)CCCN(CC)CC)c2cccc(OC)c2)C(=O)NC1=O)c1cccc(OC)c1` (stereo not given), for which the GI50 in test [2] was 1.18 µM; in test [10], 1.23 µM; in [3], 2.98 µM; in test [4], 0.825 µM; in test [5] it was 3.71 µM; in test [7] it was 1.39 µM. In addition, the values for the GI50 in test [8] and in [9] were 7.71 µM and 1.97 µM, respectively. Further, the TGI was 6.9 µM in [2]; 3.26 µM in test [10]; 13.1 µM in test [3]; 2.34 µM in [4]; 16.4 µM in [5]; 4.27 µM in [7]. Further, the TGI in [8] is 15 µM; in [9], 8.29 µM.

Consider `CC(C)(C)C1CCC2c3c([nH]c4ccccc34)C3C(=O)N(c4ccccc4)C(=O)C3C2C1` (stereo not given), for which the TGI in [1] worked out at 26.2 µM; in test [2], 17.8 µM; in test [10] it was 28.4 µM; in [3] it was 5.18 µM; in test [5], 22.5 µM; in test [7], 8.48 µM. The TGI in test [8] amounted to 56.7 µM; in [9], 52.5 µM.

Regarding `COc1ccc(C(=O)c2cc3c(N)c(C(=O)Nc4ccc(C)cc4)sc3nc2C)cc1`, the GI50 in test [1] is 5.28 µM; in test [2], 5.25 µM; in [3], 5.59 µM; in test [4] it was 4.43 µM; in test [5], 4.22 µM; in test [6] it was 4.04 µM. For the same compound, the figures for the GI50 in test [7], in test [8] and in test [9] were 3.11 µM, 12.2 µM and 5.66 µM, respectively. The concentration for total growth inhibition (TGI) in test [1] is 29.2 µM; in [2], over 100 µM; in [3] it was 33.1 µM; in test [4] it was 31.5 µM; in test [5] it was 30.9 µM; in test [6], 34.7 µM. Besides, the concentration for total growth inhibition (TGI) in [7] was 27.3 µM; in test [8], over 100 µM; in test [9], 48.7 µM.

Consider `N#C/C(=C1\SC(N=Nc2ccccc2)C(=O)N1c1ccccc1)c1nc2ccccc2[nH]1` (stereo not given), for which the TGI in [1] was over 100 µM; in test [2], over 100 µM; in test [3], over 100 µM; in [4], 73.6 µM; in test [5], over 100 µM; in test [6], over 100 µM. Moreover, the TGI in test [7], in test [8] and in test [9] was over 100 µM throughout.

As to `SCCSCCCSCCS`, the TGI in [2], in test [3], in test [4], in [5], in [7] and in test [8] was over 100 µM throughout. The TGI in test [9] was over 100 µM.

For `CCCCCCCCCCCCCCCCCC(=O)OCC(COC(=O)CCCN)OC(=O)CCCN` (stereo not given), the total growth inhibition concentration (TGI) in [1] is over 100 µM; in [2] it was 37.1 µM; in [3] it was 34.3 µM; in test [4] it was 33.8 µM; in test [5], 48 µM; in test [7], 3.63 µM. Also, the results for the TGI in test [8] and in test [9] were 35.3 µM and 45.3 µM, respectively.

Take `COc1cc(CNc2ccccc2C(=O)N2CCN(C(=O)c3cc(-c4cc(OC)c(OC)c(OC)c4)n4nc(-c5ccccc5)cc4n3)CC2)cc(OC)c1OC`: the GI50 in test [1] is 4.24 µM; in test [2], 4.35 µM; in [3], 4.42 µM; in test [4], 6.04 µM; in test [5], 6.73 µM; in test [6] it was 4.37 µM. For the same compound, the GI50 in [7] was 1.54 µM; in [8], 2.37 µM; in [9], 4.89 µM. Further, the TGI in test [1] was over 100 µM; in test [2] it was over 100 µM; in test [3] it was 38.4 µM; in test [4], over 100 µM; in [5], over 100 µM; in [6] it was over 100 µM. The total growth inhibition concentration (TGI) in [7], in test [8] and in test [9] was over 100 µM each time.

As to `OCC(O)c1nc2ccc3[nH]ncc3c2c2c1CCCC2` (stereo not given), the GI50 in test [1] is 1.13 µM; in test [2], 1.45 µM; in test [3] it was 2.23 µM; in test [4], 1.53 µM; in test [5], 1.58 µM; in test [6], 1.18 µM. The GI50 is 1.55 µM in test [7], 0.96 µM in test [8] and 1.22 µM in test [9]. In addition, the TGI in test [1] is over 50 µM; in test [2], over 50 µM; in [3], over 50 µM; in [4] it was over 50 µM; in [5], over 50 µM; in test [6] it was 2.99 µM. Besides, the TGI was over 50 µM in test [7], 2.73 µM in [8] and 4.64 µM in [9].

For `O=[N+]([O-])C1Cc2ccccc2OC1c1ccccc1` (stereo not given), the total growth inhibition concentration (TGI) in test [1] was over 100 µM; in [2], over 100 µM; in test [3], over 100 µM; in test [4] it was 83.2 µM; in [5] it was over 100 µM; in test [7], over 100 µM. The TGI in test [8] and in test [9] was over 100 µM throughout.
